Broadly, the IC50 is the concentration needed to halve the response being measured. High values mean weaker potency, low ones greater potency.

T1 sequence (Q00987 1-188): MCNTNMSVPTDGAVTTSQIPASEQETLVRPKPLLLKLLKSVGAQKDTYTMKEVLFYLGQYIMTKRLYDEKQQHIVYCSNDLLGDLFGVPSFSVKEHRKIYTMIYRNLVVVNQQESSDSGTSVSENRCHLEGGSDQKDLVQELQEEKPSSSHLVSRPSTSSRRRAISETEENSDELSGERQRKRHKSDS

This assay has as its target T1, human MDM2 (GST-hMDM2 aa 1-188), interaction with biotinylated-p53 (aa 1-83) (Homo sapiens, UniProt Q00987).
T1 construct: Amino acid residues 1-188 of human MDM2 were expressed; made in house; host or cells: Escherichia coli
The assay can be described thus: Homogenous Time-Resolved Fluorescence Assay (HTRF1 assay), inhibition of HDM2-p53 interaction. It is filed as binding. The note with it: 2.5 nM GST-hMDM2, 5 nM biotinylated-p53, 200 mM KF. As to the method:
Homogenous Time-Resolved Fluorescence Assay (HTRF1 Assay)
Residues 1-83 of human p53 were expressed as an amino-terminal AviTag™-TrxA-6xHis fusion protein (biotinylated p53) in E. coli. Each protein was purified from cell paste by affinity chromatography.
Specifically, 10 uL of GST-hMDM2 was incubated with 10 ul of diluted compound (various concentrations, serially diluted) in 10% DMSO for 20 minutes at room temperature. 20 uL of biotinylated-p53 was added to the GST-hMDM2+ compound mixture, and then incubated at room temperature for 60 min. 10 uL of detection buffer consisting of SA-XLent, anti-GST cryptate antibody and KF was added to GST-hMDM2, biotinylated-p53 and compound reaction and left at room temperature to reach equilibrium for >4 hrs. The final concentration of DMSO in the reaction was 2%. Time-resolved fluorescence readings were measured on a microplate multilabel reader. Percentage of inhibition was calculated relative to nutlin-3.
As to `C[C@@H](C1CCCCC1)N1C(=O)[C@H](CC(=O)O)O[C@H](c2cccc(Cl)c2)[C@H]1c1ccc(Cl)cc1` (single isomer, unassigned) [Example 19, 2-((2S,5R,6R)-6-(3-chlorophenyl)-5-(4-chlorophenyl)-4-((S)-1-cyclohexylethyl)-3-oxomorpholin-2-yl)acetic acid or 2-((2S,5R,6R)-6-(3-chlorophenyl)-5-(4-chlorophenyl)-4-((R)-1-cyclohexylethyl)-3-oxomorpholin-2-yl)acetic acid], the midpoint of inhibition, the IC50, lay at 600 nM.

The molecule `CC[C@H](C(=O)OC(C)(C)C)N1C(=O)[C@H](CC(=O)O)O[C@H](c2cccc(Cl)c2)[C@H]1c1ccc(Cl)cc1` (single isomer, unassigned) [Example 30] registered a concentration for half-maximal inhibition (IC50) of 1800 nM.

`CC[C@@H](C(=O)OC(C)(C)C)N1C(=O)[C@H](CC(=O)O)O[C@H](c2cccc(Cl)c2)[C@H]1c1ccc(Cl)cc1` (single isomer, unassigned) [Example 31] yielded an IC50 of 100 nM.

Molecule `CC[C@@H](C(=O)OC(C)(C)C)N1C(=O)[C@@H](CC(=O)O)O[C@H](c2cccc(Cl)c2)[C@H]1c1ccc(Cl)cc1` (single isomer, unassigned) [Example 32] gave an IC50 of 100 nM.

As to `CC[C@H](C(=O)OC(C)(C)C)N1C(=O)[C@@H](CC(=O)O)O[C@H](c2cccc(Cl)c2)[C@H]1c1ccc(Cl)cc1` (single isomer, unassigned) [Example 33], inhibition was half-maximal at 1100 nM (IC50).

`O=C(O)C[C@H]1O[C@H](c2cccc(Cl)c2)[C@@H](c2ccc(Cl)cc2F)N(CC2CC2)C1=O` (single isomer, unassigned) [Example 62] displayed an IC50 of 900 nM.

In turn, `O=C(O)CC1O[C@H](c2cccc(Cl)c2)[C@@H](c2ccc(Br)cc2)N(CC2CC2)C1=O` (single isomer, unassigned) [Example 67] showed a concentration for half-maximal inhibition (IC50) of 17500 nM.

As to `O=C(O)CC1O[C@H](c2cccc(Cl)c2)[C@@H](c2ccc(Br)cc2)N(CC2CC2)C1=O` (single isomer, unassigned) [Example 68], the half-inhibitory concentration (IC50) is 14200 nM.

For `O=C(O)CC1O[C@H](c2cccc(Cl)c2)[C@@H](c2ccc(Cl)nc2)N(CC2CC2)C1=O` (single isomer, unassigned) [Example 71], it took 3100 nM to reach half-maximal inhibition (IC50).

As for `O=C(O)CC1O[C@H](c2cccc(Cl)c2)[C@@H](c2ccc(Cl)nc2)N(CC2CC2)C1=O` (single isomer, unassigned) [Example 72], the IC50 was found to be 1500 nM.

Molecule `COc1ccc([C@@H]2[C@@H](c3cccc(Cl)c3)OC(CC(=O)O)C(=O)N2CC2CC2)cn1` (single isomer, unassigned) [Example 73] had an IC50 of 11600 nM.

The molecule `COc1ccc([C@@H]2[C@@H](c3cccc(Cl)c3)OC(CC(=O)O)C(=O)N2CC2CC2)cn1` (single isomer, unassigned) [Example 74] returned a half-inhibitory concentration (IC50) of 4500 nM.

For `COc1ccc([C@@H]2[C@@H](c3cccc(Cl)c3)OC(CC(=O)O)C(=O)N2CC2CC2)cc1` (single isomer, unassigned) [Example 75], half-maximal inhibition (IC50) required 3700 nM.

`COc1ccc([C@@H]2[C@@H](c3cccc(Cl)c3)OC(CC(=O)O)C(=O)N2CC2CC2)cc1` (single isomer, unassigned) [Example 76] returned a half-maximal inhibitory concentration (IC50) of 1400 nM.

Consider `O=C(O)CC1O[C@H](c2cccc(Cl)c2)[C@@H](c2ccc(Cl)c(F)c2)N(CC2CC2)C1=O` (single isomer, unassigned) [Example 77], for which the concentration for half-maximal inhibition (IC50) came out at 300 nM.

`O=C(O)CC1O[C@H](c2cccc(Cl)c2)[C@@H](c2ccc(Cl)c(F)c2)N(CC2CC2)C1=O` (single isomer, unassigned) [Example 78]: it took 800 nM to reach half-maximal inhibition (IC50).

In turn, `O=C(O)CC1O[C@H](c2cccc(Cl)c2)[C@@H](c2ccc(Cl)cc2Br)N(CC2CC2)C1=O` (single isomer, unassigned) [Example 79] returned an IC50 of 70200 nM.

In the case of `O=C(O)CC1O[C@H](c2cccc(Cl)c2)[C@@H](c2ccc(Cl)cc2Br)N(CC2CC2)C1=O` (single isomer, unassigned) [Example 80], the concentration for half-maximal inhibition (IC50) was determined as 14800 nM.

As to `O=C(O)CC1O[C@H](c2cccc(Cl)c2)[C@@H](c2ccc(C(F)(F)F)nc2)N(CC2CC2)C1=O` (single isomer, unassigned) [Example 81], the IC50 was 15700 nM.

In the case of `O=C(O)CC1O[C@H](c2cccc(Cl)c2)[C@@H](c2ccc(C(F)(F)F)nc2)N(CC2CC2)C1=O` (single isomer, unassigned) [Example 82], the IC50 was 30000 nM.

The molecule `O=C(O)CC1O[C@H](c2cc(F)cc(Cl)c2)[C@@H](c2ccc(Cl)cc2)N(CC2CC2)C1=O` (single isomer, unassigned) [Example 83] yielded an IC50 of 300 nM.

For the molecule `O=C(O)CC1O[C@H](c2cc(F)cc(Cl)c2)[C@@H](c2ccc(Cl)cc2)N(CC2CC2)C1=O` (single isomer, unassigned) [Example 84], half-maximal inhibition (IC50) required 300 nM.

`O=C(O)CC1O[C@H](c2cccc(F)c2)[C@@H](c2ccc(Cl)cc2)N(CC2CC2)C1=O` (single isomer, unassigned) [Example 85] came in with an IC50 of 1600 nM.

In turn, `O=C(O)CC1O[C@H](c2cccc(F)c2)[C@@H](c2ccc(Cl)cc2)N(CC2CC2)C1=O` (single isomer, unassigned) [Example 86] had a concentration for half-maximal inhibition (IC50) of 800 nM.

`O=C(O)CC1O[C@H](c2cncc(Cl)c2)[C@@H](c2ccc(Cl)cc2)N(CC2CC2)C1=O` (single isomer, unassigned) [Example 87] gave an IC50 of 1800 nM.

In turn, `O=C(O)CC1O[C@H](c2cncc(Cl)c2)[C@@H](c2ccc(Cl)cc2)N(CC2CC2)C1=O` (single isomer, unassigned) [Example 88] had a half-inhibitory concentration (IC50) of 2100 nM.

Molecule `COc1cccc([C@H]2OC(CC(=O)O)C(=O)N(CC3CC3)[C@@H]2c2ccc(Cl)cc2)c1` (single isomer, unassigned) [Example 89] had a concentration for half-maximal inhibition (IC50) of 6100 nM.

`COc1cccc([C@H]2OC(CC(=O)O)C(=O)N(CC3CC3)[C@@H]2c2ccc(Cl)cc2)c1` (single isomer, unassigned) [Example 90] registered an IC50 of 3500 nM.

Take `O=C(O)CC1O[C@H](c2ccnc(Cl)c2)[C@@H](c2ccc(Cl)cc2)N(CC2CC2)C1=O` (single isomer, unassigned) [Example 91]: it took 600 nM to reach half-maximal inhibition (IC50).

Molecule `COc1cncc([C@H]2OC(CC(=O)O)C(=O)N(CC3CC3)[C@@H]2c2ccc(Cl)cc2)c1` (single isomer, unassigned) [Example 92] came in with a half-inhibitory concentration (IC50) of 19500 nM.

With `O=C(O)CC1O[C@H](c2cc(Cl)cc(Cl)c2)[C@@H](c2ccc(Cl)cc2)N(CC2CC2)C1=O` (single isomer, unassigned) [Example 93], the half-maximal inhibitory concentration (IC50) is 300 nM.

Molecule `O=C(O)CC1O[C@H](c2ccc(F)c(Cl)c2)[C@@H](c2ccc(Cl)cc2)N(CC2CC2)C1=O` (single isomer, unassigned) [Example 94] yielded an IC50 of 600 nM.

The molecule `O=C(O)CC1O[C@H](c2cccc(OC(F)(F)F)c2)[C@@H](c2ccc(Cl)cc2)N(CC2CC2)C1=O` (single isomer, unassigned) [Example 95] came in with an IC50 of 33500 nM.

Regarding `O=C(O)CC1O[C@H](c2cc(F)cc(F)c2)[C@@H](c2ccc(Cl)cc2)N(CC2CC2)C1=O` (single isomer, unassigned) [Example 96], 1100 nM corresponded to half-maximal inhibition (IC50).

Molecule `O=C(O)CC1O[C@H](c2cc(F)cc(F)c2)[C@@H](c2ccc(Cl)cc2)N(CC2CC2)C1=O` (single isomer, unassigned) [Example 97] had an IC50 of 500 nM.

Molecule `N#Cc1cc(F)cc([C@H]2OC(CC(=O)O)C(=O)N(CC3CC3)[C@@H]2c2ccc(Cl)cc2)c1` (single isomer, unassigned) [Example 98] returned a half-inhibitory concentration (IC50) of 1800 nM.

On to `N#Cc1cc(F)cc([C@H]2OC(CC(=O)O)C(=O)N(CC3CC3)[C@@H]2c2ccc(Cl)cc2)c1` (single isomer, unassigned) [Example 99], for which the concentration for half-maximal inhibition (IC50) worked out at 1100 nM.

As for `O=C(O)CC1O[C@H](c2cc(Cl)ccc2F)[C@@H](c2ccc(Cl)cc2)N(CC2CC2)C1=O` (single isomer, unassigned) [Example 100], the IC50 came out at 1100 nM.

Regarding `O=C(O)CC1O[C@H](c2cc(Cl)ccc2F)[C@@H](c2ccc(Cl)cc2)N(CC2CC2)C1=O` (single isomer, unassigned) [Example 101], the IC50 amounted to 600 nM.

Consider `Cc1cccc([C@H]2OC(CC(=O)O)C(=O)N(CC3CC3)[C@@H]2c2ccc(Cl)cc2)c1` (single isomer, unassigned) [Example 102], for which the half-inhibitory concentration (IC50) came to 6500 nM.

In the case of `Cc1cccc([C@H]2OC(CC(=O)O)C(=O)N(CC3CC3)[C@@H]2c2ccc(Cl)cc2)c1` (single isomer, unassigned) [Example 103], 3400 nM corresponded to half-maximal inhibition (IC50).

As to `O=C(O)CC1O[C@H](c2cc(Cl)cc(Br)c2)[C@@H](c2ccc(Cl)cc2)N(CC2CC2)C1=O` (single isomer, unassigned) [Example 104], the IC50 was 500 nM.

The molecule `O=C(O)CC1O[C@H](c2cc(Cl)cc(Br)c2)[C@@H](c2ccc(Cl)cc2)N(CC2CC2)C1=O` (single isomer, unassigned) [Example 105] yielded an IC50 of 300 nM.

In the case of `O=C(O)C[C@H]1O[C@H](c2cc(Cl)cc(-c3cn[nH]c3)c2)[C@@H](c2ccc(Cl)cc2)N(CC2CC2)C1=O` (single isomer, unassigned) [Example 106], 5200 nM corresponded to half-maximal inhibition (IC50).

`O=C(O)C[C@@H]1O[C@H](c2cc(Cl)cc(-c3cn[nH]c3)c2)[C@@H](c2ccc(Cl)cc2)N(CC2CC2)C1=O` (single isomer, unassigned) [Example 107] registered an IC50 of 3800 nM.
